Data on 3 molecules can be found in patent publication US20100048676A1, “Non-androgen dependent roles for androgen receptor in liver cancer” (University of Rochester, priority 2008, published 2010).

The subject of series [1] is primary tumor cells isolated from AR+/y mice livers. The series is described as follows: Growth of primary cells from DEN-induced AR+/y liver tumors (MTT assay). The format is cell-based, mouse. Background: Formazan colour is commonly taken as a measure of viable cells.
Method: (E) Cell growth analysis using MTT assay on the cells derived from AR^+/y primary liver tumor culture in 55-weeks DEN-induced AR^+/y mice. Cells within 3 passages of subculture were used, treated with ethanol (EtOH) or DHT at different concentrations (1 and 10 nM). Cell growth was monitored for a maximum of 8 days and harvested for MTT assay. Values from background readings at 650 nm were subtracted and pooled all MTT assay results from 5 independent experiments.
(F) Primary cells were derived from 55-weeks DEN-induced AR^+/y liver tumors and cultured ex vivo. Cells were treated with ASC-J9 or cotreated with 10 nM DHT for 8 days, then harvested for MTT assay. The result represents three independent experiments.
The hepatic cells were isolated from 55-weeks-old DEN-treated mice and performed primary hepatic cell culture as described previously(30). […] The cells were maintained in DMEM (Invitrogen) with 10% Fetal Calf Serum (FCS), 1% Glutamine; and 1% penicillin/streptomycin. The cell growth assays were performed according to a previous study(32) using cell counting assay or MTT (3-(4,5-Dimethylthiazol-2-yl)-2,5-diphenyltetrazolium bromide) assay(33).
Series [2] deals with AR transactivation. As to the kind of experiment: ARE(4)-luciferase promoter assay of AR transactivation in SKAR3 sublines. The format is cell-based, human. Particulars: 1 nM DHT. An excerpt: (§1) FIG. 6. Targeting AR as therapeutic strategy. (A) Establishment of AR siRNA stable transfectants of human SKAR3 cells. Scrambled siRNA (SKAR3-sc, lane 3) and different siRNA targeting AR (SKAR3-si1; SKAR3-si2; SKAR3-si3) stable transfectants derived from SKAR3 cells. LNCaP and SK-Hep1 cells served as positive and negative controls of AR expression, respectively. (B) AR transactivation activity was used to examine the knockdown efficiency of AR siRNA in the SKAR3 cells. The SKAR3-si1 cells were used to compare with SKAR3-sc cells and treated with EtOH and 1 nM DHT for 24 hrs after ARE(4)-luciferase transfection. The readings were normalized with the read out of pRL-TK cotransfection and pooled three individual experiments. (C) AR siRNA effect on SKAR3 cell growth. SKAR3-sc and SKAR3-si1 cells were treated with EtOH or 1 nM DHT, then observed cell growth by counting cells on different days. (D) ASC-J9 effect on SKAR3 and SKAR7 cells. Cells were plated and cultured with EtOH, 10 nM DHT and 5 μM ASC-J9 for different days and examined cell growth using MTT assay. (E) ASC-J9 effect on SKAR3 cell apoptosis and proliferation. Cells were cultured with 10 nM DHT, or 5 μM ASC-J9 for 24 hrs, then detached, stained with PI, assayed immediately by flowcytometry to observe cell apoptosis. […] Six injection sites from 3 mice were measured and pooled. […]

Series [3] concerns SKAR3 cells. The conditions noted are these: SKAR3-EtOH vs SKAR3-DHT, 10 nM DHT, 4 days. As for the experimental part: (§2) FIG. 3. […] (A) Apoptotic cells in SKpar and SKAR3 cells. […] (B) Androgen and AR effect on anchorage-dependent cell growth. […] (C) Anchorage-independent cell growth of SKpar and SKAR3 cells. Cell clusters greater than 50 cells were counted as a positive clone.
(§3) The hepatic cells were isolated from 55-weeks-old DEN-treated mice and performed primary hepatic cell culture as described previously(30). The cells were plated onto 100-mm BioCoat mouse collagen I coated dishes (BD Biosciences) at a density of 5×10^5 viable cells/dish in low glucose Dulbecco's modified Eagle's medium (Invitrogen) containing 1% bovine serum albumin, 0.8 mM oleate, […] insulin (4 milliunits/ml), […] dexamethasone, 100 units of penicillin, and 1% of streptomycin/ml. Human HCC cells were obtained from Dr. Y. S. Jou in Acdemia Secienica, Taiwan published previously(31). The cells were maintained in DMEM (Invitrogen) with 10% Fetal Calf Serum (FCS), 1% Glutamine; and 1% penicillin/streptomycin.

The test system of series [4] is SKpar cells. The conditions noted are these: SKpar-EtOH vs SKpar-DHT, 10 nM DHT, 4 days. As for the experimental part:
as §2, §3

Series [5] deals with SKAR3 cells. The conditions noted are these: 10 nM DHT.
Excerpt: as §2

Series [6] has as its system superoxide dismutase 2 (SOD2). The conditions noted are these: 10 nM DHT. The method, then: (§4) FIG. 10. Examination of ROS reducing gene mRNA expression using SKpar and SKAR cells, (A, B) We plated cells and treated as indicated for 24 hrs. We examined Thioreducin-2 (A) and SOD2 (B) mRNA using Q-PCR as described in Methods.
(§5) The mRNA expression of MnSOD (SOD2), Thioreducin-2, and Gadd45 was determined using quantitative RT-PCR (Q-PCR) as previous described(37), and primer sequences are as follows.

Series [7] concerns thioreducin-2. Particulars: 10 nM DHT. As for the experimental part: as §4, §5
Series [8] deals with SKAR3 cells. The conditions noted are these: 1 nM DHT with H2O2 treatment, 24 hrs.
Method: (B) SKpar and SKAR3 cells were treated with 200 μM H2O2 or 1 nM DHT for 24 hrs and measured ROS level.
Series [9] relates to p53. The conditions noted are these: 10 nM DHT for 2, 4, and 8 hrs, time-dependent.
Method: (A) p53 protein expression of SKpar and SKAR3 cells. We treated SKpar and SKAR3 cells with 10 nM DHT for 2, 4, and 8 hrs and measured protein abundance by immunoblotting assay using p53 specific antibody. GAPDH served as loading control.
The p53 expression was analyzed using immunoblotting assay(32) to semi-quantitate p53 protein abundance in the hepatic tumor and HCC cells. […] Protein abundance was measured by Western blotting as previously described(38) using specific antibodies against AR (Pharmingen), p53 (Cell Signaling), Gadd45, . . . , and Bcl-2 (Santa Cruz).
For series [10], the system named is SKAR3 cells. The series is described as follows: ASC-J9 effect on SKAR3 cell growth (MTT assay). Particulars: 5 μM ASC-J9, in the presence of 10 nM DHT. The format is cell-based, human.
Excerpt: as §1

Series [11] deals with SKAR7 cells. The series is described as follows: ASC-J9 effect on SKAR7 cell growth (MTT assay). The format is cell-based, human. Particulars: 5 μM ASC-J9, in the presence of 10 nM DHT.
Excerpt: as §1

Series [12] concerns SKAR3 cells. As to the kind of experiment: SKAR3 cell apoptosis, PI staining and flowcytometry. The format is cell-based, human. Particulars: 5 μM ASC-J9, 24 hrs, absence or presence of 10 nM DHT.
Excerpt: as §1

Series [13] concerns primary liver tumor of AR+/y mice. The series is described as follows: Primary liver tumor cells inoculated subcutaneously into nude mice, tumor growth. Format: in vivo, mouse. Particulars: I.P. 50 mg/kg/mice twice per week, 17 weeks.
Excerpt: as §1

For series [14] the following is noted: injection of ASC-J9 for 15 weeks, mice; cited from earlier work.
The test system of series [15] is AR. As to the kind of experiment: AR expression in SKAR3 cells stably transfected with AR-siRNA. The format is cell-based, human. The conditions noted are these: SKAR3-si1, 2 or 3 vs SKAR3-sc.
Excerpt: as §1

The test system of series [16] is SKAR3 cells. As to the kind of experiment: AR siRNA effect on SKAR3 cell growth (SKAR3-sc vs SKAR3-si1). Format: cell-based, human. The conditions noted are these: 1 nM DHT.
Excerpt: as §1

Series [17] relates to AR. The conditions noted are these: MCF-7 cells, retrovirus-based vector; cited from earlier work.

Where two headings read alike, the source gives them in different places.

For the molecule `C[C@]12CCC(=O)C[C@@H]1CC[C@@H]1[C@@H]2CC[C@]2(C)[C@@H](O)CC[C@@H]12` [DHT, 5α-dihydrotestosterone], the “cell growth (cell numbers)” value in series [1] (DHT 1 and 10 nM, maximum of 8 days) is recorded as “cell numbers increased in a dose-dependent manner”. For the same molecule, in [2] (SKAR3-sc cells), the “AR transactivation induced by DHT” value is “could induce substantial AR transactivation”. The cell growth entry in [3] is reported as “further increased cell growth”; in series [4], “little effect”. For the same molecule, the “AR-promoted anchorage-independent cell growth” value in series [5] is “little influence”. For the same molecule, the “SOD2 mRNA expression” value in [6] (SKAR3 cells treated with H2O2) is given as “decreased”. Moreover, the “H2O2-induced SOD2 mRNA expression” value in series [6] (SKpar cells) is “failed to suppress”. Besides, the “thioreducin-2 mRNA expression” value in series [7] (SKAR3 cells treated with H2O2) is reported as “decreased”. Further, the “H2O2-induced thioreducin-2 mRNA expression” value in series [7] (SKpar cells) is listed as “failed to suppress”. The ROS level entry in series [8] was “further enhanced”. Also, the p53 protein expression result in series [9] is listed as “down-regulation of p53”.

`COc1ccc(C=CC(=O)C=C(O)C=Cc2ccc(OC)c(OC)c2)cc1OC` [ASC-J9, 5-hydroxy-1,7-bis(3,4-dimethoxyphenyl)-1,4,6-heptatrien-3-one]: in series [10], the cell growth result is listed as “suppression of cell growth”. Further, the cell growth entry in series [11] is given as “suppression of cell growth”. For the same molecule, the cell apoptosis result in series [12] is listed as “increased cell apoptosis”. Also, the “primary tumor cell growth” value in series [1] (5 μM ASC-J9, absence or presence of 10 nM DHT, 8 days) is on record as “suppressed the primary tumor cell growth”. Moreover, in series [13], the tumor growth result is “suppression of tumor growth”. In series [14], the serum testosterone entry is “little change in serum testosterone”; the “sexual function and fertility” value is “retained normal sexual function and fertility”.

Regarding “AR-siRNA: retrovirus-based vector that expresses AR-siRNA; stable SKAR3 sublines SKAR3-si1, 2 or 3 (guide GGGCCCCTGGATGGATAGCTACCTCGAGGTAGCTATCCATCCAGGGGCC)”, in series [15], the AR expression entry is on record as “substantially knocked down”. The “AR-mediated transactivation under AR-siRNA” value in [2] (SKAR3-si1 vs SKAR3-sc, 24 hrs) is “could induce substantial AR transactivation in SKAR3-sc, but not SKAR3-si1 cells”. Moreover, the DHT-induced cell growth result in [16] is “suppression of DHT-induced cell growth”. In addition, the AR knockdown result in series [17] is “effectively knocked down the AR”.
